Where two headings read alike, the source gives them in different places.
Key:
[1] = system: CD2; assay: CD2 expression in PBMC (flow cytometry, CD2MAb-FITC); format: cell-based; details: PBMC exposed 3 days
[2] = system: PBMC; assay: Cytokine release (ELISA) and intracellular cytokine staining in stimulated PBMC; format: cell-based, human
Protocol: FIG. 2. sPIF-1(15) (SEQ ID NO:13) increases the percentage of PBMC that contain TH2 type cytokines (IL10, IL 4), while scrPIF-1(15) (SEQ ID NO: 5) has a TH1 bias (INFgamma). Isolated PBMC were stimulated by PHA (1 ug/ml) and cultured 2-4 days with sPIF-1(15) (SEQ ID NO:13) or scrPIF-1(15) (SEQ ID NO:5). 30 nM. PBMC cytokines content was determined by specific staining using flow cytometry. Effect of PIF-1 on cellular content of cytokines of PBMC was examined up to 96 hours and a time dependent pattern emerged, not replicated by scrambled or irrelevant peptide. Measurements were carried out in two separate stages. At the cellular induction/synthetic level, lymphocytes were cultured in the presence of PHA for various periods with or without PIF-1 then processed for intracellular immunostaining (activation by PMA plus ionomycin in the presence of monenisn and berfeldin, followed by permeabilization and immunostaining) for the detection of nascent cytokines.
Human PBMC were isolated and cultured for 2-4 days in AIM-V medium containing 0 to 200 nM of sPIF-115 (SEQ ID NO:13) or scrPIF-115 (SEQ ID NO:5). The following proliferation-activating agents were used: anti-CD3 antibody (10 μg/ml solution) bound on the plate wells in the presence or absence of IL-2 at 10 μg/ml; phytohemmaglutinin (PHA) at 4 μg/ml. The effects of sPIF-115 (SEQ ID NO:13) or scrPIF-115 (SEQ ID NO:5) peptides were also determined by the mixed lymphocyte reaction (MLR) after 3 days in heterologous cultures of PBMC with cells previously treated with mitomycin C (100 μg/ml for 4 h). Cell proliferation was determined by tritiated thymidine incorporation (16 h) of 72-h culture. Cytokine release (IL-4, IL-10, IFN-γ and TNF-α) into culture supernatants was determined at 72 h of culture by ELISA (R&D System).

[3] = system: PBMC; details: PHA +
Protocol: sPIF-115 (SEQ ID NO:13) effect was tested on a patient with over 14 miscarriages and no live birth. Their immune cells were examined in the non-pregnant state, by exposure to sPIF-115 (SEQ ID NO:13) using PBMC preparations. Induction of PIF receptor expression, and binding to lymphocytes were used to characterize the treated cells.

[4] = system: mice; assay: Subcutaneous osmotic mini-pump administration in mated mice, implantation sites; format: in vivo
Protocol: Preliminary in vivo assessment of PIF-1 antagonist by using PIF1scr/amide was performed. […] Following the protocol below: (Dr Hoberman, Argus, Inc) PIF-1scr/amide was introduced two days after estrus to mice through an osmotic mini-pump (Alzet Model 2001; 1 ul/hr for 7 days) containing either 0.9% saline or 150 ug or 800 ug PIF-1scr/amide/day release in saline. The pumps were inserted subcutaneously under ketamine/xylazine anesthesia. Female mice were placed with male mice on the third day afternoon of the expected estrus. Four different groups 5 each were studied, low and high dose PIF-1scr/amide, saline control, and one group with PIF-1. Mating was confirmed by the presence of sperm in the vagina or a copulatory plug the next morning. Pregnancy (or lack thereof) was determined by sacrificing on day 10 after breeding and the uterine horns were examined for implantation sites by using Chicago Blue solution.
The group treated with PIF-1 160 ug/kg/day appeared to have increased number of implantation sites and this was associated with a higher rate of fetal survival compared to vehicle treated controls.

[5] = system: THP1 a monocyte cell line; details: 1-100 nM, no mitogen
Text: The effect of PIF-1 was examined on THP1 a monocyte cell line (Dr Sharma Brown Univ).

[6] = system: β-3 integrin; assay: β-3 integrin expression by human endometrial epithelial cells (flow cytometry, immunocytochemistry); format: cell-based
Protocol: Human endometrial tissues were digested and stromal and epithelial cells (hEEC) isolated and cultured with a fetal bovine serum (FBS)-enriched medium until confluent layers were obtained. After that the cells were cultured for two more days in a FBS free-medium followed by a further 2-day culture in the same medium containing PIF peptides (1-500 nM).
In addition, to compare the recovery of β-3 integrin expression with PIF effects described after cultured hEEC in a free-fetal bovine serum (FBS) medium some cells were cultured again in FBS-medium. […] PIF binding to epithelial cells was also examined. Binding was examined using MaBCD2 staining.

[7] = 160 ug/kg/day, compared to vehicle treated controls

**Q.** How did the “increase in CD2 expression” value [1] turn out when MVRIKPGSANKPSDD [sPIF-1(15)] was run?
**A.** Its value is 170-200%.

**Q.** And the “percentage of PBMC that contain TH2 type cytokines (IL10, IL 4)” value ([2]; PHA 1 ug/ml, 2-4 days, 30 nM, flow cytometry)?
**A.** Its value is “increases”.

**Q.** And the IFN-γ decrease ([2]; one day after IL-10 increase)?
**A.** The IFN-γ decrease was 30%.

**Q.** What about the “increase in number of IL-10 secreting cells” value ([2]; starting at day 2, peaking at days 3-4) of the same sequence?
**A.** Its value is 50-60%.

**Q.** What about the “increase of TH2/TH1 cytokine ratio in PBMC” value ([2]; stimulated PBMC) of the same sequence?
**A.** Its value is “more than five-fold”.

**Q.** And the “IFN-γ release in culture supernatants” value ([2]; stimulated PBMC, 72 h, ELISA)?
**A.** The value was “significantly decreased”.

**Q.** And the IL-4 release ([2]; stimulated PBMC, 72 h, ELISA)?
**A.** Its IL-4 release is “does not have a significant effect”.

**Q.** And the “IL-10 release in culture supernatants” value ([2]; stimulated PBMC, 72 h, ELISA)?
**A.** The value was “significantly increased”.

**Q.** And the TNF-α release ([2]; stimulated PBMC, 72 h, ELISA)?
**A.** The TNF-α release was “does not have a significant effect”.

**Q.** What about the “(PIF+/CD4+)/CD4+” value ([3]; Control specimen) of the same sequence?
**A.** Its value is 22.1.

**Q.** And the “(PIF+/CD4+)/CD4+ difference in parentheses” value ([3]; Control specimen)?
**A.** The value was 0%.

**Q.** What about the “(PIF+/CD8+)/CD8+” value ([3]; Control specimen) of the same sequence?
**A.** Its value is 24.5.

**Q.** And the “(PIF+/CD19+)/CD19+” value ([3]; Control specimen)?
**A.** The value was 46.2.

**Q.** What about the “(PIF+/CD4+)/CD4+” value ([3]; Patient specimen) of the same sequence?
**A.** Its value is 16.2.

**Q.** What about the “(PIF+/CD8+)/CD8+” value ([3]; Patient specimen) of the same sequence?
**A.** The value was 16.3.

**Q.** And the “(PIF+/CD19+)/CD19+” value ([3]; Patient specimen)?
**A.** The value was 48.2.

**Q.** What about the “(PIF+/CD4+)/CD4+ difference in parentheses” value ([3]; Patient vs control) of the same sequence?
**A.** Its value is −27%.

**Q.** What about the “(PIF+/CD8+)/CD8+ difference in parentheses” value ([3]; Patient vs control) of the same sequence?
**A.** The value was −33%.

**Q.** What about the “number of implantation sites” value [4, 7] of the same sequence?
**A.** Its value is “increased”.

**Q.** What about the “rate of fetal survival” value [4, 7] of the same sequence?
**A.** The value was “higher rate”.

**Q.** What about the “effect on maternal body weights” value ([4]; all tested groups) of the same sequence?
**A.** Its value is “no effect”.

**Q.** What about the “effect on mouse fetuses number” value ([4]; early pregnancy) of the same sequence?
**A.** Its value is “no significant effect”.

**Q.** What about the “toxic effects following administration in early pregnancy” value ([4]; pregnant mice) of the same sequence?
**A.** Its value is “no toxic effects”.

**Q.** And the IL10 secretion [5]?
**A.** Its IL10 secretion is “dose dependent increase”.

**Q.** What about the “increase in the expression of β-3-epithelial integrin” value ([6]; hEEC, 2-day culture, 1-500 nM) of the same sequence?
**A.** The value was “up to a four-fold increase”.

**Q.** And the “interaction with cultures of human endometrial stromal cells” value ([6]; stromal cells)?
**A.** The value was “did not interact”.

Source: patent US7723289B2, “PIF tetrapeptides” (BioIncept, LLC, priority 2003, dated 2010)
